# Results published in patent publication US9682960B2 (priority 2013, dated 2017).
# “And” between values parts separate entries of the source, which are not always exact repeats. Identical values can stand only once. “Also recorded” adds a separate entry of the source. Like-named read-outs stand apart in the source and are kept apart here.
# Experiments:
# Human Androgen Receptor = Human Androgen Receptor (Homo sapiens (Human), UniProt P10275); assay: Androgen receptor assay: [3H]R1881 displacement, cytosol of HEK-293 cells transfected with hAR (hydroxylapatite assay); format: binding; details: for times more potent than bicalutamide to displace R1881 from the human AR: versus bicalutamide; for Human Androgen Receptor Binding RBA (%) R1881 = 100: relative binding affinity
# Chain of Human Androgen Receptor (P10275 whole entry): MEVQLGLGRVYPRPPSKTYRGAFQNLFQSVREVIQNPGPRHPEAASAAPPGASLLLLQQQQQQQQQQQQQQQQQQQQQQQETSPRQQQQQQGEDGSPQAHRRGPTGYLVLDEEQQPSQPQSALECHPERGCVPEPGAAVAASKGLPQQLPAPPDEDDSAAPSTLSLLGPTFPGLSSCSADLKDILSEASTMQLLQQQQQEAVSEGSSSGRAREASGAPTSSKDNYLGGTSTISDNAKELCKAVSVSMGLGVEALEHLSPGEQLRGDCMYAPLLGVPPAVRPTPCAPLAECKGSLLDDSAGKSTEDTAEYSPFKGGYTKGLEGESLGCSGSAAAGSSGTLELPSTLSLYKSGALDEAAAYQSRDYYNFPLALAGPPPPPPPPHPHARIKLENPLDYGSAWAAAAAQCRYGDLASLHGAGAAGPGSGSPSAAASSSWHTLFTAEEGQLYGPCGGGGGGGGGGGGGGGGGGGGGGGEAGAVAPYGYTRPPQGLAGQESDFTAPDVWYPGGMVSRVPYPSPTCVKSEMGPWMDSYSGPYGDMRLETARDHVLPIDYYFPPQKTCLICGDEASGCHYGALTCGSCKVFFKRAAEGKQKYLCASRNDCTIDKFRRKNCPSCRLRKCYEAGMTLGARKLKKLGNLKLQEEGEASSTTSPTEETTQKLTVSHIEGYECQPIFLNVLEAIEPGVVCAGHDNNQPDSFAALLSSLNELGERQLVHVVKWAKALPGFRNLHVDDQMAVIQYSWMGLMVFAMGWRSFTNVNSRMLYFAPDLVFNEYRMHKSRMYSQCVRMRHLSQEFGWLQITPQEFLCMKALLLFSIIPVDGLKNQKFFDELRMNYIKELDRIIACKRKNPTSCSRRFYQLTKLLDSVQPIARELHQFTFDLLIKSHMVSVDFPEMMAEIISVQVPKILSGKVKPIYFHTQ
# Rat Androgen Receptor = Rat Androgen Receptor (Rattus norvegicus (Rat), UniProt P15207); assay: Androgen receptor assay: [3H]R1881 displacement, rat prostate cytosol; format: binding; details: for times more potent than OH-flutamide in the rat AR assay: versus OH-flutamide; for times more potent than bicalutamide in the rat AR assay: versus bicalutamide
# Chain of Rat Androgen Receptor (P15207 whole entry, looked up): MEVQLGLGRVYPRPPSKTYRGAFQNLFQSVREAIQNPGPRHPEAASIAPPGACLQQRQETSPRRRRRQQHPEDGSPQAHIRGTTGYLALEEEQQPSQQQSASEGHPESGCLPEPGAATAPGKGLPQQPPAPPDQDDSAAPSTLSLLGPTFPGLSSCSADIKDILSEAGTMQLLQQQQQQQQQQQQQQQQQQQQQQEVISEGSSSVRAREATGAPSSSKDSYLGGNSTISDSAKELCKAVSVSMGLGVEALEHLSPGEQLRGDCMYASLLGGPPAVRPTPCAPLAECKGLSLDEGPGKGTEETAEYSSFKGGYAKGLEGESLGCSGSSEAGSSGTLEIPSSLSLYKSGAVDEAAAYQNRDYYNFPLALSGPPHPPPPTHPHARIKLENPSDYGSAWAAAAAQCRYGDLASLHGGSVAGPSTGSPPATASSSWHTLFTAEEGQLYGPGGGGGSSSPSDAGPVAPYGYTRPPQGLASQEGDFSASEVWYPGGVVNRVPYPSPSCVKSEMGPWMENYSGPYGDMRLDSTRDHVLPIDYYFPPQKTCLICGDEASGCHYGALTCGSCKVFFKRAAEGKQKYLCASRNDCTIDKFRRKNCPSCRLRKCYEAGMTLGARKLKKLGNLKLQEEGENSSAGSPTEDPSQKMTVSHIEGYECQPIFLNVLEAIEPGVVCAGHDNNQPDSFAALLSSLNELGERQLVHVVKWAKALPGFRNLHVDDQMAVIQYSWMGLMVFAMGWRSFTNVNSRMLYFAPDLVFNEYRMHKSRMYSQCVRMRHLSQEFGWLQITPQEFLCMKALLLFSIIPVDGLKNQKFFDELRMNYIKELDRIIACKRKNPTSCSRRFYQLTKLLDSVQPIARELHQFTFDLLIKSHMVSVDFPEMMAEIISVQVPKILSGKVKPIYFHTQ
# Protocol: On the morning of the binding assay, ventral prostates collected from 24 h-gonadectomized rats were homogenized in buffer A (1 g of tissue in 5 mL) and the homogenate was centrifuged as described above.
# Androgen binding is measured using the hydroxylapatite (HAP) assay. In brief, the radioactive steroid [^3H]R1881 solubilized in ethanol is diluted with buffer B (10 mM Tris-HCl, 1.5 mM EDTA disodium salt, 10 mM α-monothioglycerol, pH 7.4). Aliquots of the cell or prostate cytosol preparation (0.1 ml) are then incubated with 5 nM [^3H]R1881 (0.1 ml, ˜100 000 cpm) in the presence or absence of the indicated concentrations of unlabeled compounds (0.1 ml, prepared in buffer B containing 30% ethanol) for 16-18 h at 0-4° C. Triamcinolone acetonide (TAC; 100 nM) is added to mask progesterone receptors. Unbound steroids are separated by incubation for 40 min at 0-4° C. with 0.3 ml HAP prepared in buffer P (50 mM Tris-HCl, 10 mM KH2PO4, pH 7.4). After incubation with HAP and 10 min of centrifugation at 1000×g, the pellet is washed 3 times with 1 ml of buffer P. Thereafter, the radioactivity is extracted from the pellet by incubation at room temperature for 60 min with 1 ml of ethanol. After centrifugation, the supernatant is decanted into a scintillation vial and the pellet is extracted again with ethanol. After the addition of scintillation liquid, the radioactivity is measured in a liquid scintillation counter.
# Relative binding affinity (RBA) was calculated by the following formula: RBA (%) [IC50(R1881)/IC50 (compound)]×100 B—In Vitro Assay of Androgenic/Antiandrogenic Activity
# [1] = system: Shionogi mouse mammary carcinoma cells; assay: In vitro androgenic/antiandrogenic activity: proliferation of Shionogi cells with or without DHT; format: cell-based; details: for IC50: Mus musculus, read-out: Shionogi Antiandrogenic Activity IC50, DHT (0.3 nM)-stimulated cell number
# [2] = system: PSA levels in human prostatic carcinoma LNCaP cells; assay: Prostate specific antigen (PSA) in LNCaP cells with or without R1881; format: cell-based; details: for inhibition at 0.1 µM: Homo sapiens, read-out: LNCaP Cells Antiandrogenic activity (PSA) % inhibition at 10^−7M, R1881-stimulated, 10^−7M of compound; for inhibition at 0.1 µM / times more potent than bicalutamide in blocking R1881-stimulated PSA secretion: LNCaP; for times more potent than bicalutamide in blocking R1881-stimulated PSA secretion: versus bicalutamide; for stimulation at 10^−7M of basal PSA levels in LNCaP cells (in words): basal (no R1881)
# Protocol: LNCaP cells were cultured as previously described (Qi et al. 2001). In brief, the LNCaP cells were cultured for 6 days in 1.0 ml RPMI 1640 supplemented with hormone-depleted 0.25% FCS before each experiment. At the start of the experiment, half of the medium (0.5 ml) was replaced with 0.5 ml of identical medium containing the appropriate concentrations of tested compounds, in the presence or absence of 1.0 nM of R1881. After 72 h of incubation of LNCaP cells with compounds, 0.5 ml of culture medium was removed for PSA determination. PSA levels were measured using the PSA [^125I] IRMA KIT (REF: RK-10CT) from Izotop (Institute of Isotopes Ltd, Budapest, Hungary).
# [3] = Oral absorption, Experiment 2: plasma, intraprostatic and intramuscular concentrations after 0.5 mg EM-9150/animal in castrated male rats; format: in vivo; details: Sprague-Dawley, rat, 0.5 mg/animal; for concentration at 7 h: po
# Protocol: Castrated male Sprague-Dawley rats (Crl:CD(SD)Br) weighing 275-375 g were used for pharmacokinetic studies. Animals were fasted (access to water only) from around 16 h00 the afternoon prior to the dosing day.
# Blood samples (˜0.5 mL/timepoint) were collected by jugular venipuncture on animals under isoflurane anesthesia at 1, 2, 3, 4, 7 and 24 h post-dosing. Blood samples were put into tubes containing EDTA(K3) as anticoagulant and centrifuged at 4° C. for 10 min at 1700-2400 g. The resulting plasma was frozen on dry ice and kept at −80° C. pending analysis. […] Prostates and bulbocavernosus muscles were frozen in liquid nitrogen and kept at −80° C. until being used. A buffer and an ethanol-acetone solution were added to the tissue and homogenized with a Polytron. The supernatant was collected, evaporated to dryness and reconstituted in buffer.
# Intraprostatic and intramuscular concentrations of the compounds were also determined by LC-MS/MS.
# [4] = system: castrated (CX) immature male rats; assay: Systemic androgenic (agonistic) activity in orchidectomized (CX) immature male rats; format: in vivo, rat; details: for CX Agonistic activity % Stimulation Bulbo / CX Agonistic activity % Stimulation SV / CX Agonistic activity % Stimulation Prostate: 0.1 mg/rat/po, 7 days; for CX Agonistic activity % Stimulation Bulbo: bulbocavernosus muscles weight; for CX Agonistic activity % Stimulation SV: seminal vesicles weight; for CX Agonistic activity % Stimulation Prostate: ventral prostate weight; for agonistic activity on ventral prostate weight (in words): daily oral dosing for 7 days
# Androgen Receptor = assay: Overall classification (antiandrogen / SARM) in the models studied
# [5] = system: intact immature male rats; assay: Activity in intact immature male rats; format: in vivo, rat
# Protocol: Immature male rats (Crl:CD(SD)Br) 22 to 24-day old weighting 60-80 g at start of treatment were obtained from Charles-River, Inc. (St-Constant, Quebec, Canada) and housed up to 5 per cage in plastic bins in a temperature (23±1° C.)- and light (12 h light/day, lights on at 7 h15)-controlled environment. The rats were fed rodent chow and tap water ad libitum. […] The day following their arrival, the designed animals were orchidectomized (CX) under Isoflurane anesthesia (Study Day 1) via the scrotal route and were then randomly assigned to groups of 3 to 5 animals. At the time of orchidectomy, one silastic implant of dihydrotestosterone (DHT; 1 cm length of pure DHT in silastic tubing having inner and outer diameter of 0.078 and 0.125 inches, respectively), was inserted subcutaneously in the dorsal area of animals assigned to the evaluation of antiandrogenic activity. In the case of intact animal experiments, the orchidectomy and the silastic implant installation are omitted.
# Tested compounds were administered orally once daily for 7 days from Study Day 2 to Study Day 8 at doses generally ranging from 0.1 and 0.5 mg/animal. Compounds were either solubilized in dimethylsulfoxide (DMSO, 10% final concentration) and were administered as a solution/suspension in 0.9% NaCl-1% gelatin or were administered as suspensions in 0.4% aqueous methylcellulose. Animals of the control groups received the corresponding vehicle alone during the 7-day period. Some animals were treated with the antiandrogen Flutamide or Casodex as reference. The animals under isoflurane anesthesia were killed by cervical dislocation on day 9 of the study, approximately 24 h after the last dosing. The ventral prostate, seminal vesicles and bulbocavernosus muscles were rapidly dissected and weighed.
# For calculations with intact animals, control DHT is replaced by control intact and the % stimulation is subtracted by 100%. W is the weight of the prostate, seminal vesicles or bulbocavernosus muscles. Discussion
# [6] = Oral absorption, Experiment 1: plasma levels after single oral 20 mg EM-9150/kg in intact male rats (LC-MS/MS); format: in vivo, rat; details: metabolite after oral EM-9150
# Protocol: Intact 6 week-old male rats (Crl:CD(SD)) weighing 150-205 g were obtained from Charles-River Canada Inc. (St-Constant, Quebec, Canada) and housed up to 3 per cage in plastic bins in a temperature (19° C. to 25° C.)- and light (12 h light/day)-controlled environment. They were acclimatized to laboratory conditions for 2 weeks prior to the pharmacokinetic (PK) study. The rats were fed rodent chow (PMI Nutrition International Certified Rodent Chow No. 5CR4 (14% protein)) and tap water ad libitum. Animals were weighing 165-200 g at the time of dosing.
# Blood samples (˜0.4 mL/timepoint/rat) were collected by jugular venipuncture at 0.5, 1, 2, 3.5, 7 and 24 h post-dosing from 3 animals/timepoint. Blood samples were put into tubes containing EDTA(K3) as anticoagulant and centrifuged at 4° C. for 10 min at 2700 rpm. The resulting plasma was separated and transferred to 2 polypropylene tubes, frozen immediately over dry ice and kept in a freezer set to maintain −80° C. until analysis.
# [7] = system: castrated (CX) immature male rats; assay: Systemic androgenic (agonistic) activity in orchidectomized (CX) immature male rats; format: in vivo; details: 0.1 mg/rat, s.c. (subcutaneous)
# [8] = bulbocavernosus muscles, read-out: intramuscular concentration
# [9] = plasma, read-out: plasma concentration
# [10] = ventral prostate, read-out: intraprostatic concentration
# [11] = immature castrated rat, oral 7 days
SMILES,times more potent than bicalutamide to displace R1881 from the human AR (Human Androgen Receptor),times more potent than OH-flutamide in the rat AR assay (Rat Androgen Receptor),times more potent than bicalutamide in the rat AR assay (Rat Androgen Receptor),"stimulation at 10^−7M on basal Shionogi cell proliferation (in words) ([1]; basal (no DHT), 10^−7M)",inhibition at 0.1 µM [2],times more potent than bicalutamide in blocking R1881-stimulated PSA secretion [2],stimulation at 10^−7M of basal PSA levels in LNCaP cells (in words) [2],"concentration at 7 h [3, 8]","concentration at 7 h [3, 9]","concentration at 7 h [3, 10]",CX Agonistic activity % Stimulation Bulbo [4],CX Agonistic activity % Stimulation SV [4],CX Agonistic activity % Stimulation Prostate [4],agonistic activity on ventral prostate weight (in words) ([4]; immature castrated rat),classification as antiandrogen or SARM (in words) (Androgen Receptor),Human Androgen Receptor Binding RBA (%) R1881 = 100 (Human Androgen Receptor),IC50 [1],also measured
CC1(C)C(=O)N(c2ccc(C#N)c(Cl)c2)C(=O)N1CCCOc1ccc(-c2ccncc2)cc1Cl [EM-9150],247 times,65 times,32 times,absence of stimulation,57%,11.0 times and 10 times,absence of stimulation; also recorded: no stimulation,1.2 ng/g,0.9 ng/mL,2.9 ng/g,1%,0%,0%,no agonistic activity,antiandrogens,–,–,"Rat Androgen Receptor Binding RBA (%) R1881 = 100 (Rat Androgen Receptor; relative binding affinity, R1881 = 100, prostate cytosol): 6.5%; times more inhibition of PSA levels in human LNCaP cells compared to the thiohydantoins ([2]; versus thiohydantoins of WO 2006/133567): ≥ 2 times; Kp at 7 h ([3]; prostate / plasma, oral, read-out: concentration in the rat prostate versus plasma): ~3"
CC1(C)C(=O)N(c2ccc(C#N)c(Cl)c2)C(=O)N1CCCOc1ccc(-c2cc[n+]([O-])cc2)cc1Cl [EM-9156],57 times,53 times,27 times,absence of stimulation,~50%,9.2 times and 10 times,absence of stimulation,12.7 ng/g,22.3 ng/mL,19.3 ng/g,5%,0%,1%,no agonistic activity,antiandrogens,–,–,Rat Androgen Receptor Binding RBA (%) R1881 = 100 (Rat Androgen Receptor): 5.3%
Cc1c(N2C(=O)N(CCCOc3ccc(-c4ccncc4)cc3Cl)C(C)(C)C2=O)ccc(C#N)c1Cl [EM-9251],–,–,–,–,–,–,–,–,–,–,119±24% and 119 ± 24 (n = 2) %,27 ± 1 (n = 2) %,41 ± 2 (n = 2) %,–,selective androgen receptor modulators,253%,67.7 nM,"times more potent than OH-flutamide on the human AR (RBA ratio) (Human Androgen Receptor; versus hydroxyflutamide): 1200 times; % of stimulation at 10^−7M on basal Shionogi cells ([1]; basal (no DHT), 10^−7M): 38%; activity on the bulbocavernosus muscles (in words) [4, 11]: agonistic activity; activity on the prostate and seminal vesicles (in words) [4, 11]: mixed agonistic-antagonistic activity; activity on the bulbocavernosus muscles (in words) ([5]; immature intact rat): agonistic activity; activity on the prostate and seminal vesicles (in words) ([5]; immature intact rat): antagonistic activity; inhibition of intact rat prostate ([5]; intact immature rat, 7 days): 25±4%; inhibition of intact rat seminal vesicles ([5]; intact immature rat, 7 days): 35±7%; stimulation of the bulbocavernosus muscles in intact rat ([5]; intact immature rat, 7 days): 77±6%"
CC1(C)NC(=O)N(c2ccc(C#N)c(Cl)c2)C1=O [EM-9260],–,–,–,–,–,–,–,–,–,–,4%,2%,0%,–,antiandrogens,~0.1%,~100 nM,share of the plasma exposure of EM-9150 [6]: approximately 90%
C[C@]12CC[C@H]3[C@@H](CCC4=CC(=O)CC[C@@]43C)[C@@H]1CC[C@@H]2O [Testosterone],–,–,–,–,–,–,–,–,–,–,–,–,–,–,–,–,–,CX Agonistic activity % Stimulation Bulbo [7]: 171%; CX Agonistic activity % Stimulation Prostate [7]: 99%
